Drawing on patent publication US20100105652A1, “PURINES AS CYSTEINE PROTEASE INHIBITORS” (Glaxo Group Limited, priority 2007, published 2010), this text covers IC50 for 15 compounds.

SMILES strings stand for the structures. Counter-ions that a name gives are not always drawn.

For test [1], the target named is T1, Falcipain-3 (Plasmodium falciparum, UniProt Q8IIL0).
T1 sequence (Q8IIL0 243-492): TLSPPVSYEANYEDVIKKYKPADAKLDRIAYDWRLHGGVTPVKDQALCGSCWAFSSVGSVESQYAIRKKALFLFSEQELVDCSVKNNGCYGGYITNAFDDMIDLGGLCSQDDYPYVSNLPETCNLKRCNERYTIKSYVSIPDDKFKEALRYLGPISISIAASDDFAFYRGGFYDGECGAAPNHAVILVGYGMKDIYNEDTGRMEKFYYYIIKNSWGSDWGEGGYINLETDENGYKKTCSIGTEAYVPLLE
As to the kind of experiment: falcipain-3 enzymatic assay (fluorogenic substrate H-D-VLR-AFC, endpoint). The format is biochemical. The following applies: parasitic recombinant enzyme, pH 5.5, quenched after 60 minutes. The method, then: (§1) 1) Determination of Falcipain-2, Falcipain-3, Vivapain-2, and Cathepsin S Proteolytic Catalytic Activity
(§2) Assays for Falcipain-2, Falcipain-3, and Vivapain-2 are carried out with parasitic recombinant enzymes. Cathepsins S is carried out with human recombinant enzymes. Standard assay conditions for the determination of kinetic constants used a fluorogenic peptide substrate, typically H-D-VLR-AFC (Falcipain-2, Falcipain-3, Vivapain-2) or KQKLR-AMC (Cathepsin S) and are determined in 100 mM sodium acetate, pH 5.5, containing 10 mM DTT and 0.5 mM CHAPS (Falcipain-2, Falcipain-3, Vivapain-2), or 50 mM MES, pH 6.5, containing 0.5 mM CHAPS, 10 mM L-CYS, 5 mM EDTA (Cathepsin S). Stock substrate solutions are prepared at 20 mM in DMSO. The activity assays contained 30 uM substrate (Falcipain-2, Falcipain-3, Vivapain-2), and 30 uM substrate (Cathepsin S). All assays contained 1% DMSO. […] All assays are conducted at ambient temperature as end point assays being quenched after 60 minutes with the exception of Cathepsin S at 90 minutes, with 16.6 uM E-64 in 1% DMSO. Product formation (AFC or AMC) is determined from fluorescence (excitation at 405 nm; emission at 530 nm, AFC, or excitation at 360 nm; emission at 460 nm, AMC) monitored with a LJL Aquest (Molecular Devices) fluorescent plate reader. In the case of kinetic reads (used in mechanism of action studies), the reaction is not quenched but is read in the plate reader every 3 minutes for approximately 90 minutes. In addition, the mechanism of action studies for Falcipain-2 utilize Z-LR-AMC as the substrate. Product formation is determined from the fluorescence of AMC, measured with a LJL Acquest (Molecular Devices) fluorescent plate reader (excitation at 360 nm; emission at 460 nm).
(§3) Potential inhibitors are evaluated using the quenched read (endpoint) method. Assays are carried out in the presence of variable concentrations of test compound. Reactions are initiated by addition of enzyme and substrate to wells containing inhibitor stamped in 100% DMSO. For endpoint assays, the reaction is quenched with the addition of E64. Dose response data is fit to an IC50 curve with preset fitting tools according to equation 1:
(§4) y=a+(b−a)/(1+(10^X/10^C)^d) (1)
(§5) where y is the response at a particular inhibitor concentration x, a is the minimum response value, b is the maximum response value, c is the IC50, and d is the slope of the IC50 curve. Assuming the compound is a competitive inhibitor, the apparent KI can be calculated from IC50, as shown in equation 2: […]

Test [2] addresses T2, Falcipain-2 (Plasmodium falciparum, UniProt Q8I6U4).
T2 sequence (Q8I6U4 244-484): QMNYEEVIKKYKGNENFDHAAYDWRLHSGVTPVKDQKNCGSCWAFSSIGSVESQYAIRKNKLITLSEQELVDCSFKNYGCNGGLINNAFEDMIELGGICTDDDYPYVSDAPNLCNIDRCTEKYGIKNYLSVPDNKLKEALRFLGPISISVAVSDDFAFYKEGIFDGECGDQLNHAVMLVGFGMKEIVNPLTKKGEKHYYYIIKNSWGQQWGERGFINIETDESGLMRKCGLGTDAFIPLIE
The test can be described thus: falcipain-2 enzymatic assay (fluorogenic substrate H-D-VLR-AFC, endpoint). The format is biochemical. The following applies: parasitic recombinant enzyme, pH 5.5, quenched after 60 minutes. As for the experimental part: as §1, §2, §3, §4, §5

The test system of test [3] is Plasmodium falciparum parasite. The test can be described thus: whole cell activity against the Plasmodium falciparum parasite. The format is cell-based. The text has this: Equation 7 describes the apparent KI for competitive compounds and was substituted into equations 5 and 6 to generate the relevant binding constants from the fitting routine. In addition, the initial and final velocities were fit to equation 3 to further define the binding mechanism and potency. A complete discussion of this kinetic treatment has been fully described (Morrison et al., Adv. Enzymol. Relat. Areas Mol. Biol., 1988, 61, 201). 2) Determination of Whole Cell Activity Against the Plasmodium falciparum Parasite Compounds can be evaluated for whole cell activity against the Plasmodium falciparum parasite according to the procedure described in Sijwali S, and Rosenthal P. J., (2004) Proceedings of the National Academy of Sciences of the United States of America (PNAS) 101(13), 4384-4389 (see in particular “Measurement of Parasite Growth rates and Inhibitor Sensitivity” on page 4385); IC50 values can be calculated as described in Singh A. and Rosenthal P. J., (2001) Antimicrobial Agents and Chemotherapy 45(3), 949-951 (see in particular page 950, first column); synchronised parasites can be prepared as described in Divo A. A. et al., (1985) Protozool. 32, 59-64.

As to `CN1CCN(C(=O)C2CCN(Cc3ccc(C(=O)NN(c4nc(C#N)nc5c4ncn5C)C4CCCC4)cc3)CC2)CC1` [Example 6, N′-(2-cyano-9-methyl-9H-purin-6-yl)-N′-cyclopentyl-4-({4-[(4-methyl-1-piperazinyl)carbonyl]-1-piperidinyl}methyl)benzohydrazide trifluoroacetate], the IC50 in test [1] is 150 to 250 nM; in test [2], 2.5 to 15 nM; in test [3] it was 15 to 150 nM.
For `CN1CCN(C(=O)n2cnc3c(N(NC(=O)OC(C)(C)C)C4CCCCC4)nc(C#N)nc32)CC1` [Example 35, 1,1-dimethylethyl 2-{2-cyano-9-[(4-methyl-1-piperazinyl)carbonyl]-9H-purin-6-yl}-2-cyclohexylhydrazinecarboxylate trifluoroacetate] the same measures were 1 to 2.5 nM, at most 1 nM and 150 to 250 nM.
Consider `CN(CCn1cnc2c(N(NC(=O)OC(C)(C)C)C3CCCC3)nc(C#N)nc21)C(C)(C)C` [Example 43, 1,1-dimethylethyl 2-(2-cyano-9-{2-[(1,1-dimethylethyl)(methyl)amino]ethyl}-9H-purin-6-yl)-2-cyclopentylhydrazinecarboxylate trifluoroacetate], for which the results for the concentration for half-maximal inhibition (IC50) in test [1], in test [2] and in test [3] were 15 to 150 nM, 2.5 to 15 nM and 250 to 400 nM, respectively.
For the compound `CN1CCN(Cc2cccc(C(=O)NN(c3nc(C#N)nc4c3ncn4C)C3CCCC3)n2)CC1` [Example 26, N′-(2-cyano-9-methyl-9H-purin-6-yl)-N′-cyclopentyl-6-[(4-methyl-1-piperazinyl)methyl]-2-pyridinecarbohydrazide trifluoroacetate], the half-maximal inhibitory concentration (IC50) in test [1] lay in the range of 150 to 250 nM; in test [2], 2.5 to 15 nM; in test [3], 250 to 400 nM.
On to `CN(C)CCn1cnc2c(N(NC(=O)c3cccc(-c4ccc(CN5CCN(C)CC5)cc4)n3)C3CCCCC3)nc(C#N)nc21` [Example 45, N′-{2-cyano-9-[2-(dimethylamino)ethyl]-9H-purin-6-yl}-N′-cyclohexyl-6-{4-[(4-methyl-1-piperazinyl)methyl]phenyl}-2-pyridinecarbohydrazide trifluoroacetate], for which the values for the IC50 in test [1], in test [2] and in test [3] were 15 to 150 nM, 2.5 to 15 nM and 15 to 150 nM, respectively.
Consider `CN1CCC(N2CCN(Cc3ccc(C(=O)NN(CC4CCCC4)c4nc(C#N)nc5c4ncn5C)cc3)CC2)CC1` [Example 18, N′-(2-cyano-9-methyl-9H-purin-6-yl)-N′-(cyclopentylmethyl)-4-({[4-(1-methyl-4-piperidinyl)-1-piperazinyl]methyl}benzohydrazide trifluoroacetate], for which the IC50 in test [1] lay within 15 to 150 nM; in test [2] it was 2.5 to 15 nM; in test [3] it was 15 to 150 nM.
With `CN(C)CCCn1cnc2c(N(NC(=O)c3cccc(-c4ccc(CN5CCN(C)CC5)cc4)n3)C3CCCCC3)nc(C#N)nc21` [Example 46, N′-{2-cyano-9-[3-(dimethylamino)propyl]-9H-purin-6-yl}-N′-cyclo hexyl-6-{4-[(4-methyl-1-piperazinyl)methyl]phenyl}-2-pyridinecarbohydrazide trifluoroacetate], the IC50 in test [1] lay within 15 to 150 nM; in test [2], 2.5 to 15 nM; in test [3], 15 to 150 nM.
As for `CN(C)C1CCN(C(=O)n2cnc3c(N(NC(=O)OC(C)(C)C)C4CCCC4)nc(C#N)nc32)CC1` [Example 48, 1,1-dimethylethyl 2-(2-cyano-9-{[4-(dimethylamino)-1-piperidinyl]carbonyl}-9H-purin-6-yl)-2-cyclopentylhydrazinecarboxylate trifluoroacetate], the IC50 in test [1] fell in the range of 15 to 150 nM; in test [2] it was 1 to 2.5 nM; in test [3], 150 to 250 nM.
For `CN1CCN(C2CCN(Cc3ccc(C(=O)NN(c4nc(C#N)nc5c4ncn5C)C4CCCC4)cc3)CC2)CC1` [Example 4, N′-(2-cyano-9-methyl-9H-purin-6-yl)-N′-cyclopentyl-4-({[4-(4-methyl-1-piperazinyl)-1-piperidinyl]methyl}benzohydrazide trifluoroacetate] the same measures were 150 to 250 nM, 2.5 to 15 nM and 2.5 to 15 nM.
Regarding `CN(C)CCn1cnc2c(N(NC(=O)c3ccc(CN4CCN(C)CC4)cc3)C3CCCC3)nc(C#N)nc21` [Example 40, N′-{2-cyano-9-[2-(dimethylamino)ethyl]-9H-purin-6-yl}-N′-cyclopentyl-4-[(4-methyl-1-piperazinyl)methyl]benzohydrazide trifluoroacetate], the IC50 lay in the range of 250 to 400 nM in test [1], 2.5 to 15 nM in test [2] and 15 to 150 nM in test [3].
For `CN1CCN(Cc2ccc(-c3cccc(C(=O)NN(c4nc(C#N)nc5c4ncn5C)C4CCCC4)n3)cc2)CC1` [Example 28, N′-(2-cyano-9-methyl-9H-purin-6-yl)-N′-cyclopentyl-6-{4-[(4-methyl-1-piperazinyl)methyl]phenyl}-2-pyridinecarbohydrazide trifluoroacetate], the results for the half-maximal inhibitory concentration (IC50) in test [1], in test [2] and in test [3] were 15 to 150 nM, 2.5 to 15 nM and 15 to 150 nM, respectively.
As for `CN1CCN(C2CCN(Cc3ccc(C(=O)NN(CC4CCCC4)c4nc(C#N)nc5c4ncn5C)cc3)CC2)CC1` [Example 1, N′-(2-cyano-9-methyl-9H-purin-6-yl)-N′-(cyclopentylmethyl)-4-({[4-(4-methyl-1-piperazinyl)-1-piperidinyl]methyl}benzohydrazide trifluoroacetate], the 50% inhibitory concentration (IC50) fell in the range of 15 to 150 nM in test [1], 2.5 to 15 nM in test [2] and 15 to 150 nM in test [3].
Regarding `CN1CCC(CN2CCN(Cc3ccc(C(=O)NN(c4nc(C#N)nc5c4ncn5C)C4CCCC4)cc3)CC2)CC1` [Example 5, N′-(2-cyano-9-methyl-9H-purin-6-yl)-N′-cyclopentyl-4-({4-[(1-methyl-4-piperidinyl)methyl]-1-piperazinyl}methyl)benzohydrazide trifluoroacetate], the IC50 in test [1] is 250 to 400 nM; in test [2] it was 2.5 to 15 nM; in test [3] it was 2.5 to 15 nM.
Consider `CN(C)CCn1cnc2c(N(NC(=O)c3cccc(-c4ccc(CN5CCN(C)CC5)cc4)n3)C3CCCC3)nc(C#N)nc21` [Example 42, N′-{2-cyano-9-[2-(dimethylamino)ethyl]-9H-purin-6-yl}-N′-cyclopentyl-6-{4-[(4-methyl-1-piperazinyl)methyl]phenyl}-2-pyridinecarbohydrazide trifluoroacetate], for which the half-inhibitory concentration (IC50) in test [1] is 15 to 150 nM; in test [2] it was 2.5 to 15 nM; in test [3], 15 to 150 nM.
On to `CN1CCN(c2ccc(C(=O)NN(c3nc(C#N)nc4c3ncn4C)C3CCCC3)cc2)CC1` [Example 32, N′-(2-cyano-9-methyl-9H-purin-6-yl)-N′-cyclopentyl-4-(4-methyl-1-piperazinyl)benzohydrazide trifluoroacetate], for which the IC50 was 15 to 150 nM in test [1], 2.5 to 15 nM in test [2] and 250 to 400 nM in test [3].
